Columns and labels:
PI3Kalpha = PI3Kalpha (Homo sapiens (Human), UniProt P42336); assay: HTRF PI3K biochemical assay, alpha isoform (for selectivity ratio); details: ratio PI3K-alpha IC50 value / PI3K-delta IC50 value
Text: (§1) HTRF PI3K Biochemical Assay to Measure Intrinsic Potency of Compound Inhibitors
(§2) The PI3-Kinase biochemical assays were developed to measure the intrinsic potency and compound dependent inhibition of the alpha, beta, delta, and gamma PI3K isoform enzymes. This assay was developed and further optimized from a kit produced by Upstate (Millipore catalog #33-047) (Millipore Sigma. Billerica Mass., USA) and has been configured for high throughput screening (HTS) and structure-activity relationship (SAR) screening. Briefly, this procedure exploits the exquisite specificity and high affinity binding of enzyme reaction […] phosphatidyl(3,4,5)triphosphate (PIP3) to the GRP1 pleckstrin homology (PH) domain to generate the signal. In the absence of PIP3, an HTRF (Homogeneous Time-Resolved Fluorescence energy transfer) complex is formed consisting of europium (Eu)-labeled anti-GST, GSTtagged GRP1-PH domain, biotin-PIP3 (biotinylated-PIP3) and streptavidin conjugated APC (Allophycocyanin). The native PIP3 produced by PI3-Kinase activity disrupts in a competitive manner the biotin-PIP3 from the pleckstrin homology (PH) domain, resulting in the loss of energy transfer (HTRF complex) and a decrease in the signal. The format of this assay is the same for all 4 isoforms of PI3K; the differences lie in the concentration of enzyme used to achieve robust assay window. The alpha, beta, and delta assays are run at 0.5, 1, and 0.3 nM enzymes and the gamma assay is run at 5 nM enzyme. The ATP concentration is 100 uM in the alpha, beta, and delta assays and 50 uM adenosine triphosphate (ATP) in the gamma assay. All reactions are run at 5 uM PIP2.
(§3) Compounds are serially diluted (3-fold in 100% DMSO) across a 384-well polypropylene source plated from column 3 to column 12 and column 13 to column 22, to yield 10 concentration dose response for each test compound. Columns 1, 2, 23 and 24 contain either only DMSO or pharmacological known control inhibitor. Once titrations are made, 2.5 nL of the compounds on 384 well plates are reformatted and transferred by acoustic dispense in quadruplicates to a 1536 assay plate (Greiner) to assay across all four PI3K isoform enzymes.
(§4) The PI3-Kinase biochemical assay was optimized using the HTRF kit provided by Upstate (Millipore). The assay kit contains six reagents: 1) 4×Reaction Buffer; 2) native PIP2 (substrate); 3) Stop (EDTA); 4) Detection Mix A (Streptavidin-APC); 5) Detection Mix B (Eu-labeled Anti-GST plus GST-tagged PH-domain): 6) Detection Mix C. In addition, the following items were obtained or purchased; PI3Kinase (catalog #'s alpha 14-602, beta 14-603, gamma 14-558 and delta 14-604 from Upstate Biotechnology now EMD Millipore, Mahopac, N.Y., USA), dithiothreitol (Sigma-Aldrich Corp. (St. Louis, Mo., USA) Catalog #D-5545), Adenosine-5′ triphosphate (InVitrogen (Waltham, Mass., USA), Cat#AS001 Å), native PIP3 (PI(3,4,5)P3, diC8, H^+, CELLSIGNALS, INC., (Columbus, Ohio, USA) Cat #907) DMSO ((Sigma-Aldrich Corp. (St. Louis. Mo., USA) Catalog #472301).
(§5) PI3Kinase Reaction Buffer is prepared by dilution the stock 1:4 with de-ionized water. DTT (DL-Dithiothreitol), phosphatidylinositol 4,5-bisphosphate (PIP2) and Biotin-PIP3 were added to 1536 assay plate at a final concentration of 5 mM, […] and 25 nM on the day of use. Enzyme addition and compound pre-incubation are initiated by the addition of 1.25 ul of PI3K (at twice its final concentration) in the 1× reaction buffer to all wells using a BioRaptor™. Plates are incubated at room temperature for 15 minutes. Reactions are initiated by addition of 1.25 ul of 2× substrate solution (PIP2 and ATP in 1× reaction buffer) using BioRaptor™. Plates are incubated in humidified chamber at room temperature for one hour. Reactions are quenched by addition of 0.625 uL of stop solution to all wells using the BioRaptor™. […]

PI3Kdelta = PI3Kdelta (Homo sapiens (Human), UniProt O00329); assay: HTRF PI3K biochemical assay, delta isoform; details: 0.3 nM enzyme, 100 uM ATP, 5 uM PIP2, form screened per table (Neutral or TFA salt)
Text: as §1, §2, §3, §4, §5

Chain of PI3Kalpha (P42336 whole entry, canonical isoform): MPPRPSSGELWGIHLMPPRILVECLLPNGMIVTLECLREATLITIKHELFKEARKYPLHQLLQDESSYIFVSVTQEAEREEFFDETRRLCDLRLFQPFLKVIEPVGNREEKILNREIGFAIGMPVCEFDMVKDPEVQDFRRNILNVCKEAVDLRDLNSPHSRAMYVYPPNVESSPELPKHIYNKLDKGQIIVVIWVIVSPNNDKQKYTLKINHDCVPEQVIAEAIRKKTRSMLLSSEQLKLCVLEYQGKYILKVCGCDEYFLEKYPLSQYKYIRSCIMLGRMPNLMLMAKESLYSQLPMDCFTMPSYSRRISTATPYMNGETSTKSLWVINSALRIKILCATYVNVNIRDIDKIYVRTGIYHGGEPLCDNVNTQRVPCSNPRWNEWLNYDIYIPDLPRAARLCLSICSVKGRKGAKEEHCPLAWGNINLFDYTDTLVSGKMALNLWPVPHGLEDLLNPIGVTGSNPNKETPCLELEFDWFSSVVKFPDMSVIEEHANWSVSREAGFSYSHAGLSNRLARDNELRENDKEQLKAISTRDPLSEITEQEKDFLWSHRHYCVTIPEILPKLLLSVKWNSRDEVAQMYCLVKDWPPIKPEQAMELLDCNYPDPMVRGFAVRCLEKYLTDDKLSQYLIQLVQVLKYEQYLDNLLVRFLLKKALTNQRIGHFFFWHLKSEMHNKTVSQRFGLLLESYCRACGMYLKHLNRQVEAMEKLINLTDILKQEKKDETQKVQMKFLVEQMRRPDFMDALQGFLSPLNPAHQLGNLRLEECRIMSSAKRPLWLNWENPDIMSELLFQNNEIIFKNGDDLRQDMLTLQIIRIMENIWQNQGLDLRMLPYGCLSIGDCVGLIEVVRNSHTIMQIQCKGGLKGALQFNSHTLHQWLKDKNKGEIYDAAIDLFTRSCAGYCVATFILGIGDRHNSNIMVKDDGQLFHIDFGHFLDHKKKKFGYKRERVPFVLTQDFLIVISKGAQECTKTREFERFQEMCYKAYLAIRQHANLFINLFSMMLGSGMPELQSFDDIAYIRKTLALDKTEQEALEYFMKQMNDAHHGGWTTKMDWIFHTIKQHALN
Chain of PI3Kalpha (P27986 whole entry partner, canonical isoform): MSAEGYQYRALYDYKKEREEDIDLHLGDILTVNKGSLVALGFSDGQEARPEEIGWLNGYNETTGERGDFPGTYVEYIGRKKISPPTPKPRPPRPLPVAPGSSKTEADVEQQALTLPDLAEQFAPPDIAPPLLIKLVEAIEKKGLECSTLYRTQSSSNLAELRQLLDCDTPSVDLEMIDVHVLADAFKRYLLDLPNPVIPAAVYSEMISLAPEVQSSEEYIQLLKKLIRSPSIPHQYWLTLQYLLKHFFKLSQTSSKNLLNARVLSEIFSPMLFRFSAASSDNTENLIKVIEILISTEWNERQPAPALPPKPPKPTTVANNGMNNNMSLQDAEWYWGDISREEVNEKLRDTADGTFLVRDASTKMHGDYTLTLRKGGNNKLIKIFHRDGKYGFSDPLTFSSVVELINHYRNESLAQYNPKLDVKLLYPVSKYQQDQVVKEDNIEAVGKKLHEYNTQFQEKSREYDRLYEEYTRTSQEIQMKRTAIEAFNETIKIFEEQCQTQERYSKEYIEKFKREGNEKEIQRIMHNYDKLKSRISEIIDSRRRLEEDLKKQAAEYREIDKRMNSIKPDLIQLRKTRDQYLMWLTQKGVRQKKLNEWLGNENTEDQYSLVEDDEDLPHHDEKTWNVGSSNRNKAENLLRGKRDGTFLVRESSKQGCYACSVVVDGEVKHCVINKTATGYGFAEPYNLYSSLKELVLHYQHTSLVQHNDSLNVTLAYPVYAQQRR
Chain of PI3Kdelta (O00329 whole entry, canonical isoform): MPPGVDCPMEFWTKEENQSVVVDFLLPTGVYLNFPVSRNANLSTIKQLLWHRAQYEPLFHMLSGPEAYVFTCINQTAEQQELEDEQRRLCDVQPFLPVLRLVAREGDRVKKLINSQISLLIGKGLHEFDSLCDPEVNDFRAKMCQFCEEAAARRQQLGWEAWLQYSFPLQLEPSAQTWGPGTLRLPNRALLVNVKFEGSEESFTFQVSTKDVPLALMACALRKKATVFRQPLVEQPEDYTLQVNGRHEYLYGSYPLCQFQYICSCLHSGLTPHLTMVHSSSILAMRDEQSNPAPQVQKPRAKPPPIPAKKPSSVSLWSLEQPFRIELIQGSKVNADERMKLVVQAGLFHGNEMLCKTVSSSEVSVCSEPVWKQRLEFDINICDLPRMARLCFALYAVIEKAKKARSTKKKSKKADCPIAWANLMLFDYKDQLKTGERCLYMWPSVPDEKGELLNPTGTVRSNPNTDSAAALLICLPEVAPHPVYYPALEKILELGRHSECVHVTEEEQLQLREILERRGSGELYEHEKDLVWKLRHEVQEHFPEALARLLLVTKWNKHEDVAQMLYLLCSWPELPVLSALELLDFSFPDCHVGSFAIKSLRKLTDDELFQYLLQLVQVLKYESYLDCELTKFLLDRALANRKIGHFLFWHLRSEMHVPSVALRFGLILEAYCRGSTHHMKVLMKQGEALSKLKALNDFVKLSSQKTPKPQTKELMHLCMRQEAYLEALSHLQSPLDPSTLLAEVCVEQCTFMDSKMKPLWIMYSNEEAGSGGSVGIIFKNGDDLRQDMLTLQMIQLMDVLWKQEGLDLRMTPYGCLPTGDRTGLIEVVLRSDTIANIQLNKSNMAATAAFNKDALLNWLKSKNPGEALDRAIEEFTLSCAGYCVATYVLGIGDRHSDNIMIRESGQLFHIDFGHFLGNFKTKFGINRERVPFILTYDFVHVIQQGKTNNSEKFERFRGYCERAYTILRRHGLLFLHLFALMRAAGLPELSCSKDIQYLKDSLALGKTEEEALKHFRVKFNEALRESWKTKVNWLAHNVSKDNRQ
Chain of PI3Kdelta (P27986 whole entry partner, canonical isoform): as the sequence (P27986 whole entry partner, canonical isoform) above

Selectivity versus PI3Kalpha (PI3Kalpha)	IC50 (PI3Kdelta) [nM]	SMILES
>10	32	Cn1cc(-c2nc(N3CCC4(CC3)CNC(=O)N4CC(F)(F)F)cnc2C#N)cn1 [Compound 1-11, 3-(1-methyl-1H-pyrazol-4-yl)-5-[2-oxo-1-(2,2,2-trifluoroethyl)-1,3,8-triazaspiro[4.5]dec-8-yl]pyrazine-2-carbonitrile]
>10	54	N#Cc1ncc(N2CCC3(CC2)COC(=O)N3CC2CC2)nc1-c1cnn(C(F)F)c1 [Compound 1-12, 5-[1-(cyclopropylmethyl)-2-oxo-3-oxa-1,8-diazaspiro[4.5]dec-8-yl]-3-[1-(difluoromethyl)-1H-pyrazol-4-yl]pyrazine-2-carbonitrile]
>10	190	C[C@@H]1CN(c2nc(-c3cnn(C)c3)cnc2C#N)CCN1C(=O)C1CC1 [Compound 1-13, 3-[(3R)-4-(cyclopropylcarbonyl)-3-methylpiperazin-1-yl]-5-(1-methyl-1H-pyrazol-4-yl)pyrazine-2-carbonitrile]
>10	8.9	C[C@@H]1C[C@H]1C(=O)N1CCN(c2cnc(C#N)c(-c3cnn(C)c3)n2)C[C@H]1C [Compound 1-14, 5-[(3R)-3-methyl-4-{[(1R,2R)-2-methylcyclopropyl]carbonyl}piperazin-1-yl]-3-(1-methyl-1H-pyrazol-4-yl)pyrazine-2-carbonitrile]
>10	33	C[C@@H]1CN(c2cnc(C#N)c(-c3cnn(C)c3)n2)CCN1C(=O)C1CC1 [Compound 1-15, 5-[(3R)-4-(cyclopropylcarbonyl)-3-methylpiperazin-1-yl]-3-(1-methyl-1H-pyrazol-4-yl)pyrazine-2-carbonitrile]
>10	280	C[C@@H]1CN(c2cnc(C#N)c(-c3cnn(C)c3)n2)CCN1C(=O)NC1CC1 [Compound 1-16, (2R)-4-[5-cyano-6-(1-methyl-1H-pyrazol-4-yl)pyrazin-2-yl]-N-cyclopropyl-2-methylpiperazine-1-carboxamide]
>10	73	C[C@@H]1C[C@H]1C(=O)N1CCN(c2cnc(C#N)c(-c3cnn(C(F)F)c3)n2)C[C@H]1C [Compound 1-17, 3-[1-(difluoromethyl)-1H-pyrazol-4-yl]-5-[(3R)-3-methyl-4-{[(1R,2R)-2-methylcyclopropyl]carbonyl}piperazin-1-yl]pyrazine-2-carbonitrile]
>10	16	[2H]C([2H])([2H])n1cc(-c2nc(N3CCN(C(=O)C4CC4)[C@H](C)C3)cnc2C#N)cn1 [Compound 1-18, 5-[(3R)-4-(cyclopropylcarbonyl)-3-methylpiperazin-1-yl]-3-[1-(~2~H_3_)methyl-1H-pyrazol-4-yl]pyrazine-2-carbonitrile]
>10	39	CC(C)C[C@@H]1CN(c2cnc(C#N)c(-c3cnn(C)c3)n2)CCN1C(=O)C1CC1 [Compound 1-19, 5-[(3R)-4-(cyclopropylcarbonyl)-3-(2-methylpropyl)piperazin-1-yl]-3-(1-methyl-1H-pyrazol-4-yl)pyrazine-2-carbonitrile]
>10	18	Cn1cc(-c2nc(N3CCC4(CCC(=O)N4CC4CC(F)(F)C4)CC3)cnc2C#N)cn1 [Compound 1-20, 5-{1-[(3,3-difluorocyclobutyl)methyl]-2-oxo-1,8-diazaspiro[4.5]dec-8-yl}-3-(1-methyl-1H-pyrazol-4-yl)pyrazine-2-carbonitrile]

Continued, compound first:

SMILES	Selectivity versus PI3Kalpha (PI3Kalpha)	IC50 (PI3Kdelta) [nM]
Cn1cc(-c2nc(N3CCC4(CC3)NC(=O)OC4CC3CC3)cnc2C#N)cn1 (single isomer, unassigned) [Compound 1-7, 5-[4-(cyclopropylmethyl)-2-oxo-3-oxa-1,8-diazaspiro[4.5]dec-8-yl]-3-(1-methyl-1H-pyrazol-4-yl)pyrazine-2-carbonitrile]	>10	55
CCC1C(=O)NCC12CCN(c1cnc(C#N)c(-c3cnn(C)c3)n1)CC2 (single isomer, unassigned) [Compound 1-8, 5-(4-ethyl-3-oxo-2,8-diazaspiro[4.5]dec-8-yl)-3-(1-methyl-1H-pyrazol-4-yl)pyrazine-2-carbonitrile]	>10	60
CC(C)CC1OC(=O)NCC12CCN(c1cnc(C#N)c(-c3cnn(C)c3)n1)CC2 (single isomer, unassigned) [Compound 1-10, 5-[1-(2-methylpropyl)-3-oxo-2-oxa-4,9-diazaspiro[5.5]undec-9-yl]-3-(1-methyl-1H-pyrazol-4-yl)pyrazine-2-carbonitrile]	>10	30
Cn1cc(-c2nc(N3CCC4(CCC(=O)N4CC4CC4)CC3)cnc2C#N)cn1 [Compound 1-1, 5-[1-(cyclopropylmethyl)-2-oxo-1,8-diazaspiro[4.5]dec-8-yl]-3-(1-methyl-1H-pyrazol-4-yl)pyrazine-2-carbonitrile]	>10	5.4
Cn1cc(-c2nc(N3CCC4(CC3)COC(=O)N4CC3(C)COC3)cnc2C#N)cn1 [Compound 1-2, 5-{1-[(3-methyloxetan-3-yl)methyl]-2-oxo-3-oxa-1,8-diazaspiro[4.5]dec-8-yl}-3-(1-methyl-1H-pyrazol-4-yl)pyrazine-2-carbonitrile]	>10	45
Cn1cc(-c2nc(N3CCC4(CC3)CNC(=O)N4CC3CC3)cnc2C#N)cn1 [Compound 1-3, 5-[1-(cyclopropylmethyl)-2-oxo-1,3,8-triazaspiro[4.5]dec-8-yl]-3-(1-methyl-1H-pyrazol-4-yl)pyrazine-2-carbonitrile]	>10	9.7
CN(C)CCN1CC2(CCN(c3cnc(C#N)c(-c4cnn(C)c4)n3)CC2)N(CC2CC2)C1=O [Compound 1-4, 5-{1-(cyclopropylmethyl)-3-[2-(dimethylamino)ethyl]-2-oxo-1,3,8-triazaspiro[4.5]dec-8-yl}-3-(1-methyl-1H-pyrazol-4-yl)pyrazine-2-carbonitrile]	>10	10
CC(N1C(=O)N(CCN(C)C)CC12CCN(c1cnc(C#N)c(-c3cnn(C)c3)n1)CC2)C(F)(F)F (stereo not shown) [Compound 1-5, 5-{3-[2-(dimethylamino)ethyl]-2-oxo-1-(2,2,2-trifluoro-1-methylethyl)-1,3,8-triazaspiro[4.5]dec-8-yl}-3-(1-methyl-1H-pyrazol-4-yl)pyrazine-2-carbonitrile]	>10	7.2
Cn1cc(-c2nc(N3CCC4(CC3)CNS(=O)(=O)N4CC3CC3)cnc2C#N)cn1 [Compound 1-6, 5-[1-(cyclopropylmethyl)-2,2-dioxido-2-thia-1,3,8-triazaspiro[4.5]dec-8-yl]-3-(1-methyl-1H-pyrazol-4-yl)pyrazine-2-carbonitrile]	>10	12
COCCN1CC2(CCN(c3cnc(C#N)c(-c4cnn(C)c4)n3)CC2)N(CC2CC2)C1=O [Compound 1-9, 5-[1-(cyclopropylmethyl)-3-(2-methoxyethyl)-2-oxo-1,3,8-triazaspiro[4.5]dec-8-yl]-3-(1-methyl-1H-pyrazol-4-yl)pyrazine-2-carbonitrile]	>10	18
